This passage reports IC50 results from patent US11247990B1, “Bicyclic fused pyridine compounds as inhibitors of TAM kinases” (ARRAY BIOPHARMA INC., priority 2017, dated 2022).

Structures can show the parent of a compound that is named as a salt. A value given as a limit tells only on which side of the number the result lay.

Test [1] addresses GST-tagged recombinant human TYRO3 kinase domain (Homo sapiens (Human), UniProt Q06418). Kind of test: TYRO3 Enzyme Assay (LanthaScreen Eu Kinase Binding, TR-FRET). The conditions noted are these: averaged IC50. How it is done:
Compounds of Formula I were screened for their ability to inhibit TYRO3 kinase using Invitrogen's LanthaScreen™ Eu Kinase Binding technology. […] After a 60-minute incubation at 22° C., the reaction was measured using a PerkinElmer EnVision multimode plate reader via TR-FRET dual wavelength detection, and the percent of control (POC) calculated using a ratiometric emission factor. […] The POC values were fit to a 4 parameter logistic curve and the IC50 value is point where the curve crosses 50 POC.

Test [2] concerns the target His-tagged recombinant human MER cytoplasmic domain (Homo sapiens (Human), UniProt Q12866). The test can be described thus: MER Enzyme Assay (LanthaScreen Eu Kinase Binding, TR-FRET). The note with it: averaged IC50. How it is done:
Compounds of Formula I were screened for their ability to inhibit MER kinase using Invitrogen's LanthaScreen™ Eu Kinase Binding technology. […] After a 60-minute incubation at 22° C., the reaction was measured using a PerkinElmer EnVision multimode plate reader via TR-FRET dual wavelength detection, and the percent of control (POC) was calculated using a ratiometric emission factor. […] The POC values are fit to a 4 parameter logistic curve and the IC50 value is point where the curve crosses 50 POC.

His-tagged recombinant human MER cytoplasmic domain, sequence (Q12866 527-999): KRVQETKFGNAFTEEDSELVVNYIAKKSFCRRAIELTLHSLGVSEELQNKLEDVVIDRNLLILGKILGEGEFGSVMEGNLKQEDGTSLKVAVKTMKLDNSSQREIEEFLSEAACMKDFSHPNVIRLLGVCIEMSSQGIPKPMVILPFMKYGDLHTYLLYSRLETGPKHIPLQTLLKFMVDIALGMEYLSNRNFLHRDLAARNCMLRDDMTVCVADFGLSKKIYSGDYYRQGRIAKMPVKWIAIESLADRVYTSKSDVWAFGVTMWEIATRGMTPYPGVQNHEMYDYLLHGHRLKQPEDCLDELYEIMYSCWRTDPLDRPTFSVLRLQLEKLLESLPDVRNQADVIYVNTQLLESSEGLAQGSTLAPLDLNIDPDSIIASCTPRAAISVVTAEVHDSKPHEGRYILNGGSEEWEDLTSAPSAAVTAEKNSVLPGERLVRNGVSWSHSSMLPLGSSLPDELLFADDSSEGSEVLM
GST-tagged recombinant human TYRO3 kinase domain, sequence (Q06418 518-790): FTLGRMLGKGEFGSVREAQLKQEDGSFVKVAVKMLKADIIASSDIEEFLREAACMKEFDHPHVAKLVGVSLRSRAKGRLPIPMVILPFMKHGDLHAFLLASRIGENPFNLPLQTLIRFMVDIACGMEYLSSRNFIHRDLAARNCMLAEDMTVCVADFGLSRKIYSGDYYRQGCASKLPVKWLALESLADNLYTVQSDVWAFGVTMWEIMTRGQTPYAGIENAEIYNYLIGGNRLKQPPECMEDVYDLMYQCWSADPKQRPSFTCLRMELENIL

As for `CNc1cc2c(cn1)c(-c1cnn(C)c1)nn2[C@H]1CC[C@@H](Oc2nn(C)c(=O)cc2C)CC1` [Example 6, 2,5-dimethyl-6-(((1s,4s)-4-(3-(1-methyl-1H-pyrazol-4-yl)-6-(methylamino)-1H-pyrazolo[4,3-c]pyridin-1-yl)cyclohexyl)oxy)pyridazin-3(2H)-one], in test [1], the IC50 was 1000 to 10000 nM.
Consider `CNc1cc2c(cn1)c(-c1cnn(C)c1)nn2[C@H]1CC[C@@H](Oc2nn(C)c(=O)c(C)c2C)CC1` [Example 8, 2,4,5-trimethyl-6-(((1s,4s)-4-(3-(1-methyl-1H-pyrazol-4-yl)-6-(methylamino)-1H-pyrazolo[4,3-c]pyridin-1-yl)cyclohexyl)oxy)pyridazin-3(2H)-one hydrochloride], for which, in test [1], the IC50 was in the range of 1000 to 10000 nM.
For the molecule `CNc1cc2c(cn1)c(-c1cnn(C)c1)nn2[C@H]1CC[C@@H](Oc2c(F)cccc2F)CC1` [Example 356, 1-((1s,4s)-4-(2,6-difluorophenoxy)cyclohexyl)-N-methyl-3-(1-methyl-1H-pyrazol-4-yl)-1H-pyrazolo[4,3-c]pyridin-6-amine], in test [2], the IC50 is less than 10 nM.
Turning to `CNc1cc2c(cn1)c(-c1cnn(C)c1)nn2[C@H]1CC[C@@H](Oc2cccc(C)c2)CC1` [Example 366, N-methyl-3-(1-methyl-1H-pyrazol-4-yl)-1-((1s,4s)-4-(m-tolyloxy)cyclohexyl)-1H-pyrazolo[4,3-c]pyridin-6-amine], the 50% inhibitory concentration (IC50) in test [2] was less than 10 nM.
Same read-out and setting: for `CCNc1cc2c(cn1)c(-c1cnn(C)c1)nn2[C@H]1CC[C@@H](Oc2ccc(C(=O)NC)cc2C(F)(F)F)CC1` [Example 392, 4-(((1s,4s)-4-(6-(ethylamino)-3-(1-methyl-1H-pyrazol-4-yl)-1H-pyrazolo[4,3-c]pyridin-1-yl)cyclohexyl)oxy)-N-methyl-3-(trifluoromethyl)benzamide] the value was less than 10 nM.
Still for that read-out and setting: for `CCNc1cc2c(cn1)c(-c1ccn(C)c(=O)c1)nn2[C@H]1CC[C@@H](Oc2ccccc2F)CC1` [Example 398, 4-(6-(ethylamino)-1-((1s,4s)-4-(2-fluorophenoxy)cyclohexyl)-1H-pyrazolo[4,3-c]pyridin-3-yl)-1-methylpyridin-2(1H)-one] the value was less than 10 nM; for `CCNc1cc2c(cn1)c(-c1cnn(C(C)(C)C#N)c1)nn2[C@H]1CC[C@@H](Oc2ccccc2F)CC1` [Example 400, 2-(4-(6-(ethylamino)-1-((1s,4s)-4-(2-fluorophenoxy)cyclohexyl)-1H-pyrazolo[4,3-c]pyridin-3-yl)-1H-pyrazol-1-yl)-2-methylpropanenitrile], less than 10 nM; for `CCNc1cc2c(cn1)c(-c1cn[nH]c1)nn2[C@H]1CC[C@@H](Oc2ccccc2F)CC1` [Example 401, N-ethyl-1-((1s,4s)-4-(2-fluorophenoxy)cyclohexyl)-3-(1H-pyrazol-4-yl)-1H-pyrazolo[4,3-c]pyridin-6-amine], less than 10 nM.
On the same count and under the same terms, to `CCNc1cc2c(cn1)c(-c1cnn(C(CO)CO)c1)nn2[C@H]1CC[C@@H](Oc2ccccc2F)CC1` [Example 411, 2-(4-(6-(ethylamino)-1-((1s,4s)-4-(2-fluorophenoxy)cyclohexyl)-1H-pyrazolo[4,3-c]pyridin-3-yl)-1H-pyrazol-1-yl)propane-1,3-diol] belongs less than 10 nM; to `CCNc1cc2c(cn1)c(-c1cnn(C(CO)CO)c1)nn2[C@H]1CC[C@@H](Oc2cccc(F)c2)CC1` [Example 412, 2-(4-(6-(ethylamino)-1-((1s,4s)-4-(3-fluorophenoxy)cyclohexyl)-1H-pyrazolo[4,3-c]pyridin-3-yl)-1H-pyrazol-1-yl)propane-1,3-diol], less than 10 nM.
For the molecule `CCNc1cc2c(cn1)c(-c1cnn(C(CO)CO)c1)nn2[C@H]1CC[C@@H](Oc2ccc(F)cc2)CC1` [Example 413], in test [2], the IC50 was less than 10 nM.
As to `CCNc1cc2c(cn1)c(-c1cnn(C(CO)CO)c1)nn2[C@H]1CC[C@@H](Oc2cc(F)ccc2F)CC1` [Example 416, 2-(4-(1-((1s,4s)-4-(2,5-difluorophenoxy)cyclohexyl)-6-(ethylamino)-1H-pyrazolo[4,3-c]pyridin-3-yl)-1H-pyrazol-1-yl)propane-1,3-diol], the IC50 in test [2] is less than 10 nM.
Same read-out and setting: for `CCNc1cc2c(cn1)c(-c1cnn(C(CO)CO)c1)nn2[C@H]1CC[C@@H](Oc2ccc(F)c(F)c2)CC1` [Example 418, 2-(4-(1-((1s,4s)-4-(3,4-difluorophenoxy)cyclohexyl)-6-(ethylamino)-1H-pyrazolo[4,3-c]pyridin-3-yl)-1H-pyrazol-1-yl)propane-1,3-diol] the value was less than 10 nM.
The same measure, in the same setting: for `CCNc1cc2c(cn1)c(-c1cnn(C3CCS(=O)(=O)C3)c1)nn2[C@H]1CC[C@@H](Oc2ccccc2F)CC1` (some centres unmarked) [Example 425, 3-(4-(6-(ethylamino)-1-((1s,4s)-4-(2-fluorophenoxy)cyclohexyl)-1H-pyrazolo[4,3-c]pyridin-3-yl)-1H-pyrazol-1-yl)tetrahydrothiophene 1,1-dioxide] the value was less than 10 nM; for `CCNc1cc2c(cn1)c(-c1cnn(C3CS(=O)(=O)C3)c1)nn2[C@H]1CC[C@@H](Oc2ccccc2F)CC1` [Example 426, 3-(4-(6-(ethylamino)-1-((1s,4s)-4-(2-fluorophenoxy)cyclohexyl)-1H-pyrazolo[4,3-c]pyridin-3-yl)-1H-pyrazol-1-yl)thietane 1,1-dioxide], less than 10 nM; for `CCNc1cc2c(cn1)c(-c1cnn(C[C@H](O)[C@H](C)O)c1)nn2[C@H]1CC[C@@H](Oc2ccccc2F)CC1` [Example 430, (2S,3S)-1-(4-(6-(ethylamino)-1-((1s,4R)-4-(2-fluorophenoxy)cyclohexyl)-1H-pyrazolo[4,3-c]pyridin-3-yl)-1H-pyrazol-1-yl)butane-2,3-diol], less than 10 nM.
Consider `CCNc1cc2c(cn1)c(-c1cnn(C[C@@H](O)CO)c1)nn2[C@H]1CC[C@@H](Oc2cccc(C)c2F)CC1` [Example 438, (R)-3-(4-(6-(ethylamino)-1-((1s,4S)-4-(2-fluoro-3-methylphenoxy)cyclohexyl)-1H-pyrazolo[4,3-c]pyridin-3-yl)-1H-pyrazol-1-yl)propane-1,2 diol], for which the IC50 in test [2] was less than 10 nM.
The same measure, in the same setting: to `CCNc1cc2c(cn1)c(-c1cnn(C[C@H](O)C(C)(C)O)c1)nn2[C@H]1CC[C@@H](Oc2cccc(Cl)c2)CC1` [Example 441, (S)-1-(4-(1-((1s,4R)-4-(3-chlorophenoxy)cyclohexyl)-6-(ethylainino)-1H-pyrazolo[4,3-c]pyridin-3-yl)-1H-pyrazol-1-yl)-3-methylbutane-2,3-diol] belongs less than 10 nM.
For the molecule `CCNc1cc2c(cn1)c(-c1cnn(C[C@@H](O)C(C)(C)O)c1)nn2[C@H]1CC[C@@H](Oc2cccc(Cl)c2)CC1` [Example 443, (R)-1-(4-(1-((1s,4S)-4-(3-chlorophenoxy)cyclohexyl)-6-(ethylamino)-1H-pyrazolo[4,3-c]pyridin-3-yl)-1H-pyrazol-1-yl)-3-methylbutane-2,3-diol], the IC50 in test [2] is less than 10 nM.
The same measure, in the same setting: to `CCNc1cc2c(cn1)n(-c1ccc(CN3CCN(C)CC3)cc1)nc2[C@H]1CC[C@@H](Oc2ccccc2F)CC1` [Example 482, N-ethyl-3-((1s,4s)-4-(2-fluorophenoxy)cyclohexyl)-1-(4-((4-methylpiperazin-1-yl)methyl)phenyl)-1H-pyrazolo[3,4-c]pyridin-5-amine] belongs less than 10 nM.
